Like-named read-outs stand apart in the source and are kept apart here.
Test system: M. mycetomatis genome strain MM55
Test: CLSI M38-A2 based in vitro susceptibility screening (XTT or resazurin), growth at fixed concentration
Assay type: cell-based, Madurella mycetomatis
Conditions: Madurella mycetomatis; for Percent fungal survival at 100 µM: read-out: Percentage survival at 100um, 100 uM A (second replicate column)
[1] = mean of replicates, read-out: Percentage survival at 25um, 25 uM mean
[2] = replicate A, read-out: Percentage survival at 25um, 25 um A
[3] = replicate B, read-out: Percentage survival at 25um, 25 uM B
[4] = replicate C, read-out: Percentage survival at 25um, 25 uM C
[5] = mean of replicates, read-out: Percentage survival at 100um, 100 uM mean
[6] = replicate 1, read-out: Percentage survival at 100um, 100 uM A (first replicate column)
[7] = replicate 3, read-out: Percentage survival at 100um, 100 uM A (third replicate column)
[8] = replicate 1, read-out: Percentage survival at 100um, 100 uM A
[9] = replicate 2, read-out: Percentage survival at 100um, 100 uM A
[10] = replicate 3, read-out: Percentage survival at 100um, 100 uM A
[11] = mean of three replicates, read-out: Percentage survival at 25um, 25 uM mean
[12] = mean of three replicates, read-out: Percentage survival at 100um, 100 uM mean
[13] = first replicate column, read-out: Percentage survival at 100um, 100 uM A
[14] = second replicate column, read-out: Percentage survival at 100um, 100 uM A
[15] = third replicate column, read-out: Percentage survival at 100um, 100 uM A
[16] = mean of replicates, MM55, read-out: Percentage survival at 25um, 25 uM mean
[17] = replicate A, MM55, read-out: Percentage survival at 25um, 25 um A
[18] = replicate B, MM55, read-out: Percentage survival at 25um, 25 uM B
[19] = replicate C, MM55, read-out: Percentage survival at 25um, 25 uM C
[20] = mean of replicates, MM55, read-out: Percentage survival at 100um, 100 uM mean
[21] = replicate 1, MM55, read-out: Percentage survival at 100um, 100 uM A
[22] = replicate 2, MM55, read-out: Percentage survival at 100um, 100 uM A
[23] = replicate 3, MM55, read-out: Percentage survival at 100um, 100 uM A

## COc1cc(Cc2cnc(N)nc2N)c2c(c1OC)OC(C1CC1)C=C2 (centres unmarked) [MMV1613563]
[1]
  activity at 25 µM: 99.9%
[2]
  activity at 25 µM: 106%
[3]
  activity at 25 µM: 107%
[4]
  activity at 25 µM: 86.9%
[5]
  activity at 100 µM: 91.5%
[6]
  activity at 100 µM: 93.6%
Replicate 2
  Percent fungal survival at 100 µM: 93.2%
[7]
  activity at 100 µM: 87.7%

## C=C[C@]1(C)C[C@@H](OC(=O)CS[C@@H]2C[C@H]3CC[C@@H](C2)N3C)[C@]2(C)[C@H](C)CC[C@]3(CCC(=O)[C@H]32)[C@@H](C)[C@@H]1O [MMV1633674]
[1]
  activity at 25 µM: 89.3%
[2]
  activity at 25 µM: 84.6%
[3]
  activity at 25 µM: 97.9%
[4]
  activity at 25 µM: 85.5%
[5]
  activity at 100 µM: 48.4%
[8]
  activity at 100 µM: -3.26%
[9]
  activity at 100 µM: 61.3%
[10]
  activity at 100 µM: 87%

## CC(C)c1cc2c(cc1S(=O)(=O)O)[C@@]1(C)CCC[C@@](C)(C(=O)O)[C@@H]1CC2 [MMV1633675]
[11]
  activity at 25 µM: 79.3%
[2]
  activity at 25 µM: 73.4%
[3]
  activity at 25 µM: 82.6%
[4]
  activity at 25 µM: 81.8%
[12]
  activity at 100 µM: 82.2%
[6]
  activity at 100 µM: 91.1%
Replicate 2
  Percent fungal survival at 100 µM: 74%
[7]
  activity at 100 µM: 81.5%

## Nc1nc2c(ncn2[C@@H]2O[C@H](CO)[C@@H](O)[C@H]2F)c(=O)[nH]1 [MMV1633677]
[11]
  activity at 25 µM: 85.2%
[2]
  activity at 25 µM: 76.3%
[3]
  activity at 25 µM: 91.2%
[4]
  activity at 25 µM: 88.1%
[13]
  activity at 100 µM: 85.8%
[12]
  activity at 100 µM: 83.6%
[14]
  activity at 100 µM: 80.2%
[15]
  activity at 100 µM: 84.7%

## CC[C@@]1(O)C(=O)OCc2c1cc1n(c2=O)Cc2cc3c(CN(C)C)c(O)ccc3nc2-1 [MMV1633678]
[11]
  activity at 25 µM: 101%
[2]
  activity at 25 µM: 86.9%
[3]
  activity at 25 µM: 110%
[4]
  activity at 25 µM: 108%
[13]
  activity at 100 µM: 94.8%
[12]
  activity at 100 µM: 89.5%
[14]
  activity at 100 µM: 86.7%
[15]
  activity at 100 µM: 86.9%

## CCc1ccccc1OCCN1CCCCCC1 [MMV1633962]
[11]
  activity at 25 µM: 60.1%
[2]
  activity at 25 µM: 47.9%
[3]
  activity at 25 µM: 69.8%
[4]
  activity at 25 µM: 62.5%
[13]
  activity at 100 µM: 61.1%
[12]
  activity at 100 µM: 61.5%
[14]
  activity at 100 µM: 62.7%
[15]
  activity at 100 µM: 60.6%

## O=C(O)/C=C/C=C/c1cccc(Oc2cc(Cl)cc(Cl)c2)c1 [MMV1633963]
[16]
  activity at 25 µM: 44.9%
[17]
  activity at 25 µM: 58.7%
[18]
  activity at 25 µM: 58.6%
[19]
  activity at 25 µM: 17.4%
[20]
  activity at 100 µM: 7.42%
[21]
  activity at 100 µM: 7.5%
[22]
  activity at 100 µM: 5.34%
[23]
  activity at 100 µM: 9.43%

## O=C(NCCN1CCCCC1)c1cccc(C(F)(F)F)c1 [MMV1633964]
[11]
  activity at 25 µM: 86.8%
[2]
  activity at 25 µM: 87.8%
[3]
  activity at 25 µM: 90.2%
[4]
  activity at 25 µM: 82.3%
[13]
  activity at 100 µM: 77.6%
[12]
  activity at 100 µM: 81.1%
[14]
  activity at 100 µM: 90.5%
[15]
  activity at 100 µM: 75.1%

## COc1c(NC(=O)[C@H]2CC[C@@H](COc3ccc([N+](=O)[O-])cc3)CC2)c(F)cc2c(=O)c(C(=O)O)cn(C3CC3)c12 [MMV1633965]
[1]
  activity at 25 µM: 83.5%
[2]
  activity at 25 µM: 86.3%
[3]
  activity at 25 µM: 88.2%
[4]
  activity at 25 µM: 76%
[5]
  activity at 100 µM: 82.8%
[8]
  activity at 100 µM: 86.1%
[9]
  activity at 100 µM: 78.7%
[10]
  activity at 100 µM: 83.4%

## Nc1nc(-c2ccccc2)nc2[nH]nc(Nc3ccc(C(F)(F)F)cc3)c12 [MMV1633968]
[16]
  activity at 25 µM: 111%
[17]
  activity at 25 µM: 147%
[18]
  activity at 25 µM: 105%
[19]
  activity at 25 µM: 80.3%
[20]
  activity at 100 µM: 86.9%
[21]
  activity at 100 µM: 89.5%
[22]
  activity at 100 µM: 94%
[23]
  activity at 100 µM: 77.2%

— article PMC8815882, “Screening the pandemic response box identified benzimidazole carbamates, Olorofim and ravuconazole as promising drug candidates for the treatment of eumycetoma” (PLoS Neglected Tropical Diseases, 2022)
